Measured values reported in ChEMBL document CHEMBL3885861, “Open TG-GATES”.

Species on record: Rattus norvegicus
Test: Open TG-GATES - Regimen: Single
Type: toxicity, organism-based, Sprague-Dawley
Design: regimen Single, gender Male, age 6 weeks
Settings: in vivo, po, 0 mg/kg, route gavage, dose level Control; for APTT / Bas / Eos / Fbg / Hb / Ht / Lym / MCH / MCHC / MCV / Mono / Neu / PT / Plat / RBC / Ret / WBC: tissue Blood; for KIDNEY_L / KIDNEY_R / KIDNEY_TOTAL: tissue Kidney; for LIVER: tissue Liver; for A/G / ALP / ALT / AST / BUN / CRE / Ca / Cl / DBIL / GLC / IP / K / LDH / Na / PL / RALB / TBIL / TC / TG / TP / gamma-GTP: tissue Plasma

## CCc1oc2ccccc2c1C(=O)c1cc(I)c(O)c(I)c1 [BENZIODARONE]
3 h
  TERMINAL_BW: 211.5 g
  APTT: 16.8 s
  Bas: 0%
  Eos: 0.4%
  Fbg: 205.2 mg/dL
  Hb: 13.7 g/dL
  Ht: 40.7%
  Lym: 81.8%
  MCH: 22 pg
  MCHC: 33.6%
  MCV: 65.5 fL
  Mono: 8%
  Neu: 9.6%
  PT: 11.9 s
  Plat: 114.1 x10_4/uL
  RBC: 621 x10_4/ul
  Ret: 9.1%
  WBC: 100.3 x10_2/uL
  KIDNEY_L: 1 g
  KIDNEY_R: 1 g
  KIDNEY_TOTAL: 2 g
  LIVER: 9.9 g
  A/G: 2.2
  ALP: 888.8 IU/L
  ALT: 33.4 IU/L
  AST: 64 IU/L
  BUN: 12.8 mg/dL
  CRE: 0.5 mg/dL
  Ca: 10.8 mg/dL
  Cl: 104.2 meq/L
  DBIL: 0.006 mg/dL
  GLC: 191.8 mg/dL
  IP: 9.6 mg/dL
  K: 4.6 meq/L
  LDH: 93.2 IU/L
  Na: 141.4 meq/L
  PL: 146 mg/dL
  RALB: 3.8 g/dL
  TBIL: 0.3 mg/dL
  TC: 79.4 mg/dL
  TG: 59.8 mg/dL
  TP: 5.5 g/dL
  gamma-GTP: 1.4 IU/L
6 h
  TERMINAL_BW: 210.7 g
  APTT: 17.7 s
  Bas: 0%
  Eos: 0.8%
  Fbg: 204.4 mg/dL
  Hb: 13.8 g/dL
  Ht: 41.4%
  Lym: 84%
  MCH: 21.7 pg
  MCHC: 33.3%
  MCV: 65.1 fL
  Mono: 5%
  Neu: 10.6%
  PT: 12 s
  Plat: 116.7 x10_4/uL
  RBC: 636.4 x10_4/ul
  Ret: 11.3%
  WBC: 115.5 x10_2/uL
  KIDNEY_L: 1 g
  KIDNEY_R: 1 g
  KIDNEY_TOTAL: 1.9 g
  LIVER: 9.5 g
  A/G: 2.2
  ALP: 852.8 IU/L
  ALT: 33 IU/L
  AST: 62 IU/L
  BUN: 9.8 mg/dL
  CRE: 0.5 mg/dL
  Ca: 10.6 mg/dL
  Cl: 104.6 meq/L
  DBIL: 0.046 mg/dL
  GLC: 180.2 mg/dL
  IP: 9.3 mg/dL
  K: 4.6 meq/L
  LDH: 81.2 IU/L
  Na: 141.4 meq/L
  PL: 126.6 mg/dL
  RALB: 3.7 g/dL
  TBIL: 0.4 mg/dL
  TC: 71.4 mg/dL
  TG: 57.6 mg/dL
  TP: 5.4 g/dL
  gamma-GTP: 1.4 IU/L
9 h
  TERMINAL_BW: 208.6 g
  APTT: 18 s
  Bas: 0%
  Eos: 1%
  Fbg: 199 mg/dL
  Hb: 13.6 g/dL
  Ht: 40%
  Lym: 77.6%
  MCH: 22.4 pg
  MCHC: 34%
  MCV: 66 fL
  Mono: 7.2%
  Neu: 14.4%
  PT: 12.3 s
  Plat: 113.9 x10_4/uL
  RBC: 606 x10_4/ul
  Ret: 8.6%
  WBC: 92 x10_2/uL
  KIDNEY_L: 1 g
  KIDNEY_R: 1 g
  KIDNEY_TOTAL: 1.9 g
  LIVER: 8.7 g
  A/G: 2.3
  ALP: 824.8 IU/L
  ALT: 30.8 IU/L
  AST: 62 IU/L
  BUN: 9.8 mg/dL
  CRE: 0.5 mg/dL
  Ca: 10.3 mg/dL
  Cl: 105.6 meq/L
  DBIL: 0.062 mg/dL
  GLC: 191.8 mg/dL
  IP: 10.9 mg/dL
  K: 4.5 meq/L
  LDH: 67 IU/L
  Na: 142.4 meq/L
  PL: 128 mg/dL
  RALB: 3.7 g/dL
  TBIL: 0.3 mg/dL
  TC: 71.2 mg/dL
  TG: 32.8 mg/dL
  TP: 5.3 g/dL
  gamma-GTP: 0.8 IU/L
24 h
  TERMINAL_BW: 224.5 g
  APTT: 16.7 s
  Bas: 0%
  Eos: 1.2%
  Fbg: 203.6 mg/dL
  Hb: 13.3 g/dL
  Ht: 39.4%
  Lym: 75.8%
  MCH: 22 pg
  MCHC: 33.8%
  MCV: 65.2 fL
  Mono: 7.2%
  Neu: 16.2%
  PT: 11.8 s
  Plat: 117.5 x10_4/uL
  RBC: 604.6 x10_4/ul
  Ret: 8.8%
  WBC: 109.7 x10_2/uL
  KIDNEY_L: 1 g
  KIDNEY_R: 1 g
  KIDNEY_TOTAL: 2 g
  LIVER: 10.8 g
  A/G: 2.1
  ALP: 1056.6 IU/L
  ALT: 37.8 IU/L
  AST: 66 IU/L
  BUN: 17.6 mg/dL
  CRE: 0.5 mg/dL
  Ca: 10.7 mg/dL
  Cl: 105.6 meq/L
  DBIL: 0.008 mg/dL
  GLC: 200.6 mg/dL
  IP: 7.6 mg/dL
  K: 4.8 meq/L
  LDH: 76.2 IU/L
  Na: 141.8 meq/L
  PL: 149.8 mg/dL
  RALB: 3.8 g/dL
  TBIL: 0.3 mg/dL
  TC: 76 mg/dL
  TG: 109.6 mg/dL
  TP: 5.6 g/dL
  gamma-GTP: 1 IU/L
